Assay results published in PubChem BioAssay AID179 (DTP/NCI, 2004).
Activity calls are given as the source filed them.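 Rule for the calls: active = compounds giving half or more protection of infected cells from virus-caused growth loss, again on retest; inactive = the rest.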

System: CEM cells HIV-1 protection, formazan growth assay
Experiment: NCI AIDS Antiviral Assay
Settings: for IC50: measured here: growth of uninfected CEM cells
How it was run: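 Human CEM cells, uninfected and HIV-1-infected, received five drug concentrations, and growth was read by soluble formazan assay. Compounds giving at least 50% protection were retested; reproducible 100% protection defined confirmed active.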

Structure (SMILES)	EC50 [µM]	IC50 [µM]	outcome
CC1=C(C(=O)Nc2ccccc2)C(c2ccc(Cl)c(Cl)c2)C(C(=O)Nc2ccccc2)=C(C)N1	> 10.7	> 10.7	–
CC[C@@H]1ON(C)[C@H]2CN(C)C(=O)[C@@H]12	> 200	> 200	–
CCCCCCCCCCCCC(F)C(=O)OCC1OC(n2cc(C)c(=O)[nH]c2=O)CC1N=[N+]=[N-] (stereo not drawn)	0.0123	102	–
Clc1ccc(Nc2nnc(CCCCCCCCc3nnc(Nc4ccc(Cl)cc4)o3)o2)cc1	> 200	45.7	–
CCOc1ccc(NC(=O)CC2SC(=Nc3ccc(Cl)cc3)NC2=O)cc1 (stereo not drawn)	> 617	> 617	–
COc1ccc2nc3ccccc3c(NCCCCN(C)CCCl)c2c1	> 2	0.151	–
Cc1ccccc1N1C(=O)C2C=CC(n3[nH]c(=O)n(Cc4ccccc4)c3=O)CC2C1=O (stereo not drawn)	> 219	> 219	–
O=C(NCCc1c(-c2ccccc2)[nH]c2ccccc12)C(F)(F)F	> 200	34.7	–
CC#N.CC#N.COC(=O)[C@@H]1CN(C(=O)Cc2ccccc2)C(=O)[N-]1.COC(=O)[C@@H]1CN(C(=O)Cc2ccccc2)C(=O)[N-]1.COC(=O)[C@@H]1CN(C(=O)Cc2ccccc2)C(=O)[N-]1.COC(=O)[C@@H]1CN(C(=O)Cc2ccccc2)C(=O)[N-]1.[Rh+2].[Rh+2]	> 12	11	–
O=C(O)c1cc(S(=O)(=O)N=NC=C2c3ccccc3N(O)c3ccccc32)ccc1O	–	–	inactive
Nc1c(C(=O)Nc2ccccc2)[n+]([O-])c2ccccc2[n+]1[O-]	–	–	inactive
COc1ccccc1NC(=O)C(/C=N/C(=S)NNC(C)=O)=C(/C)O	> 200	> 200	–
C[N+](C)(C)CC1CCC(C[N+](C)(C)C)C1=O (stereo not drawn)	–	–	inactive
CC1(C)Cc2c(C#N)c(N)c3c(c2CO1)C(=O)OC3=O	> 19.1	> 19.1	–
CCC(=O)N(O)C(C)(C)C	> 1740	> 1740	–
CCC1=NC(C(F)(F)F)(C(F)(F)F)N=C(N2CCOCC2)O1	> 200	> 200	–
S=c1n(-c2ccc(Cl)cc2)c2nc3ccccc3nc(/c2=N\Nc2ccc(Br)cc2)n1-c1ccccn1	> 32.4	30.9	–
COc1ccc(CC2c3c(cc(OC)c(OC)c3OC)CCN2C)cc1OC (stereo not drawn)	> 589	158	–
OC/C=C/c1cccc(Cl)c1	–	–	inactive
COc1ccc(C2S/C(=C\c3ccccc3O)C(=O)N2NC(=O)Cc2ccccc2)cc1 (stereo not drawn)	> 57.5	> 57.5	–
O=C(NNC(=S)Nc1ccccc1)c1nsc2ccccc12	> 110	17.8	–
O=C(Nc1ccc(F)cc1)Nc1ccc(Nc2ccccc2)cc1	> 200	> 200	–

Structure (SMILES)	EC50 [µM]	IC50 [µM]	outcome
CCCSCC(P(=O)(O)O)P(=O)(O)O	–	–	inactive
O=C(/C=C/c1cccs1)c1ccc([N+](=O)[O-])cc1	> 200	–	–
CNCc1c(S)ccc2ccccc12	–	–	inactive
CC(=O)O[C@]12CCCC1C1(O)C(O)CCCC12 (stereo partly drawn)	> 200	> 200	–
Cn1c2ccccc2c2nnc(-n3nc(-c4ccccc4)cc3N)nc21	> 200	53.7	–
CC(C)=CCC/C(C)=C/CC/C(C)=C/CC/C=C(\C)CC/C=C(\C)CCC1SC1(C)C (stereo not drawn)	> 200	> 200	–
Cc1cn(C2CC(N=[N+]=[N-])C(COC(=O)CCCCCCCCCCBr)O2)c(=O)[nH]c1=O (stereo not drawn)	–	110	active
COC(=O)[C@@]12CSC[C@]1(C(=O)OC)N[C@@H](c1ccccc1O)C2	> 200	> 200	–
ClCCCSSCCCCl	> 200	31.6	–
COC(=O)c1cc(C(=O)Nc2cc(C(=CCC[C@H]3CC[C@@]4(C)[C@@H](CC[C@@H]5[C@@H]4CC[C@]4(C)[C@@H](C(C)CCCC(C)C)CC[C@@H]54)C3)c3cc(NC(=O)c4ccc(OC)c(C(=O)OC)c4)c(OC)c(C(=O)OC)c3)cc(C(=O)OC)c2OC)ccc1OC (stereo partly drawn)	> 100	> 100	–
CC(N)S(=O)(=O)O (stereo not drawn)	> 200	158	–
CC1(CO)CCCC/C1=N\Nc1cc([N+](=O)[O-])cc([N+](=O)[O-])c1 (stereo not drawn)	> 501	19.1	–
c1ccc(-c2nc3sc(-c4ccccn4)nc3s2)nc1	–	–	inactive
CN(C)C=Nc1ccc2[nH]c3ccccc3c2c1	> 200	107	–
COc1cc2c(cc1OC)C(=O)C(C1=C(SC(=N)N)C(=O)c3cc(OC)c(OC)cc31)C2 (stereo not drawn)	> 28.2	> 28.2	–
O=C(O)Cc1ccc2c(c1)sc1nc(-c3ccc(Br)cc3)cn12	> 200	141	–
COC1/C=C/OC2(C)Oc3c(C)c(O)c4c(O)c(cc(OCC(=O)N(C)CCCCC(=O)O)c4c3C2=O)NC(=O)/C(C)=C/C=C/C(C)C(O)C(C)C(O)C(C)C(OC(C)=O)C1C (stereo not drawn)	> 200	19.1	–
C=C(C=O)[C@@H]1C2OC(=O)C(=C)[C@@H]2CC(O)[C@@]1(C)CC (stereo partly drawn)	> 151	5.89	–
O=C(O)c1cc(N=Nc2ccc(/C=C/c3ccc(N=Nc4ccc(O)c(C(=O)O)c4)cc3S(=O)(=O)O)c(S(=O)(=O)O)c2)ccc1O	22.4	36.3	–
O=C(/C=C1/NC(=O)CS1)Nc1ccccc1	> 380	182	–
O=C(Cc1ccccc1)c1ccc2[nH]c(=O)oc2c1	> 200	102	–
N#CC(C#N)=Cc1ccc(C=C(C#N)C#N)cc1	> 200	8.51	–

Structure (SMILES)	EC50 [µM]	IC50 [µM]	outcome
CCCCCCCCOCC(O)CO (stereo not drawn)	–	–	inactive
COc1ccc(CC2COC(=O)[C@@H]2Cc2ccc(O)cc2)cc1OC (stereo partly drawn)	> 200	44.7	–
CSc1ccc(NC(=O)Nc2cc(C)ccn2)cc1	> 200	191	–
Cc1ccc(S(=O)(=O)SC(S(=O)(=O)c2ccc(C)cc2)S(=O)(=O)c2ccc(C)cc2)cc1	> 355	148	–
Cc1sc2c(c1C)c(=O)[nH]c1c(C#N)c(-c3ccc(Cl)cc3)cn12	186	> 200	–
Cc1cc(=O)[nH]c2cc(NC(=O)C(CCCN=C(N)N)NC(=O)OCc3ccccc3)ccc12 (stereo not drawn)	> 200	> 200	–
N#CN=C1N=S(=O)(c2ccccc2)c2ccccc21 (stereo not drawn)	> 186	162	–
Cc1nc(Nc2nc3ccccc3[nH]2)[nH]c(=O)c1CCO	> 200	> 200	–
NC(=S)Nc1cc(Cl)ccc1Cl	> 32.4	> 32.4	–
C=CCOCCCCC(C(C)=O)C(=O)OC (stereo not drawn)	> 251	> 251	–
CCOc1ccc(N=Cc2cccc3cccnc23)cc1	–	–	inactive
O=C1c2ccc(S(=O)(=O)O)cc2C(=O)c2cc(S(=O)(=O)O)ccc21	–	–	inactive
CN(C)C=C1C(Cl)=C(C=O)CC(C=O)=C1Cl	–	–	inactive
CO/C(=C/C(=O)c1ccccc1)C(=O)c1ccccc1	> 115	61.7	–
COc1ccc(-c2cc(=O)c3c(O)cc(O)c(-c4cc(-c5cc(=O)c6c(O)cc(OC)cc6o5)ccc4OC)c3o2)cc1	> 200	107	–
C[C@]12CCc3nonc3C1CC[C@@H]1C2CC[C@@]2(C)C1CC[C@@H]2O (stereo partly drawn)	> 214	174	–
C/C(=N\NC(=O)c1ccncc1)c1ccccc1F	> 977	617	–
N#Cc1cccc(C2ON=C(c3ccc([N+](=O)[O-])cc3)N2C23CC4CC(CC(C4)C2)C3)c1 (stereo not drawn)	> 200	> 200	–
O=C1C(CN2CCCCC2)CCC1CN1CCCCC1 (stereo not drawn)	> 200	8.13	–
O=C(O)COc1ccc(C(=O)/C(SS/C(C(=O)c2ccc(OCC(=O)O)c(Cl)c2Cl)=C2\C=C(c3ccc(Br)cc3)SS2)=C2/C=C(c3ccc(Br)cc3)SS2)c(Cl)c1Cl	–	–	inactive
Cc1cc(-n2c(/C=C/c3ccc(Cl)cc3)nc3cc(Cl)ccc3c2=O)on1	> 50.1	> 50.1	–
Clc1cccc(C2=NOC3COC4C=CC=CC4OCC23)c1 (stereo not drawn)	> 58.9	> 58.9	–

Structure (SMILES)	EC50 [µM]	IC50 [µM]	outcome
CCOc1ccc(NCC(=O)N2CC(=O)Nc3cc(C)c(C)cc32)cc1	> 20.4	> 20.4	–
CNc1nnc(CCCCCCCCc2nnc(NC)o2)o1	> 200	11.5	–
NC(CCC(=O)O)(CCC(=O)O)CCC(=O)O	–	–	inactive
O=[N+]([O-])c1ccc(C(Cl)S(=O)(=O)c2ccccc2)cc1 (stereo not drawn)	> 83.2	4.79	–
COP(=O)(OC)c1ccc(NCc2cc(O)ccc2O)cc1	> 55	7.94	–
COC1OC2COC(c3ccccc3)OC2C2N=C(N)N([N+](=O)[O-])C12OS(C)(=O)=O (stereo not drawn)	–	–	inactive
Oc1ccc(C(O)(c2ccccc2)c2ccccc2)cc1	> 67.6	41.7	–
c1cc(CCSSCCc2ccncc2)ccn1	> 200	3.8	–
Cn1cnc2c(C#N)c(C#N)nn2c1=O	> 200	> 200	–
Cc1cc2c(c(C(N)=O)c1C)-c1ccccc1C2=O	> 102	> 102	–
CC1(C)OC(=O)CC(=O)O1	> 200	> 200	–
CC(C)C(Sc1nc(-c2ccccc2)c(-c2ccccc2)[nH]1)C(=O)NN (stereo not drawn)	> 10.2	4.9	–
O=C1OCC(O)=C1C(c1ccc(Cl)cc1)c1cc2c(cc1O)OCO2 (stereo not drawn)	> 200	> 200	–
CC1=CC(=O)c2cccc(NC3=NCCO3)c21	> 200	72.4	–
CCOC(=O)/C=C(\C)NCCSSCCN/C(C)=C/C(=O)OCC	> 200	50.1	–
O=C1CCC(c2ccccc2)=NN1c1nsc2ccccc12	> 85.1	> 85.1	–
NC(CSS(=O)(=O)O)=NCCc1ccccn1	> 200	> 200	–
COC1=CC2(c3ccccc3)C(=CC1=O)CCN2C(=O)c1ccccc1 (stereo not drawn)	–	–	inactive
O=C1c2ccccc2CC12CCC1(CC2)OCCO1	> 200	> 200	–
COC(=O)c1cc(C(=CCC(=O)N[C@H]2CC[C@@]3(C)[C@@H](CC[C@@H]4[C@@H]3CC[C@]3(C)[C@@H]([C@H](C)CCCC(C)C)CC[C@@H]43)C2)c2cc(Cl)c(OC)c(C(=O)OC)c2)cc(Cl)c1OC	> 200	> 200	–
CN1CCN(C(=S)N(C(=O)c2cccs2)c2ccccc2)CC1	> 105	> 105	–
